Data from patent publication US10428151B2, “Treatment of hematologic malignancies with an anti-CXCR4 antibody” (BRISTOL-MYERS SQUIBB COMPANY, priority 2011, dated 2019).

Tests used:
[1] = test system: human umbilical vein endothelial cells (HuVEC); assay: HuVEC capillary tube formation; assay type: cell-based; settings: HuVEC on MATRIGEL, 18 hours
Experimental: In this example, the ability of the anti-CXCR4 human antibodies to inhibit capillary tube formation by human umbilical vein endothelial cells (HuVEC) was examined […]® was diluted 1:1 with RPMI and plated onto the wells of a 96 well plate and allowed to polymerize for 30 minutes at 37° C. HuVEC (from Cambrex, cat. # CC-2519) at 80% confluence were trypsinized and resuspended at 1×10^6 cells per ml in RPMI with 0.5% FBS. Antibodies were well mixed with HuVEC at a final concentration of 3 mg/ml and allowed to incubate at room temperature for 30 minutes. An irrelevant antibody of the same isotype or media alone was used as a negative control. As a positive control of inhibition of tube formation, a mouse anti-human αvβ3 (CD51/CD61) antibody (R&D Systems, cat. # MAB3050) was used. HuVEC with or without antibodies were plated onto the […]®-coated wells and incubated at 37° C. for 18 hours.
The HuVEC incubated with media alone or with the isotype-matched control antibody formed capillary tubes resulting in the appearance of connected cells across the plate with 3-5 points of connection or branch points per cell. […] The cells appeared isolated and with few or no branch points.

parental JJN-3 cells = assay: JJN-3 MM xenograft in SCID mice; assay type: in vivo; settings: Day 25; compared to vehicle control; MDX-1338 10 mg/kg/dose IP, bortezomib 0.8 mg/kg/dose IV
Text: 5 million JJN-3 cells/mouse were implanted into SCID mice and the mice were randomized into groups of 8 when the tumor volume reached approximately 77 mm^3.

MM cells = settings: Roccaro et al., 2012; cited from earlier work
B16-CXCR4 cells = assay: B16-CXCR4 lung metastases, C57 mouse systemic tumor model; assay type: in vivo; settings: day 14, 5 mg/kg IP
Experimental: In this example, the ability of the F7 anti-CXCR4 mAb to inhibit lung metastases was examined using a C57 mouse systemic tumor model. More specifically, 0.4×10^6 B16-CXCR4 cells (B16 cells transfected to express human CXCR4) were injected intravenously into each of 30 mice of the C57 strain. The mice were randomized into three groups of ten mice each, which were then treated with either (i) vehicle (PBS); (ii) IgG4 isotype control (5 mg/kg); or (iii) F7 IgG4 (5 mg/kg). The antibody or vehicle was injected intraperitoneally 30 minutes after the B16-CXCR4 cells were injected intravenously. Lungs were harvested on day 14 and the number of lung metastasis nodules was quantitated.

Ramos cells [2] = assay: Ramos systemic tumor cell model, survival; assay type: in vivo, mouse; settings: second experiment
Experimental: In this example, the ability of an anti-CXCR4 human antibody to increase survival time of mice was examined using a Ramos systemic tumor cell model. In this assay, 1×10^6 Ramos cells/mouse were injected intravenously (IV) into each mouse on Day 0. The mice then received an intraperitoneal (IP) injection of a first dose of antibody on Day 1 (i.e., one day after IV administration of tumor cells) and received four more IP doses of antibody, on days 5, 8, 15 and 22 (mice treated with the positive control antibody were treated only on day 1). […] Dose response studies had previously found 15 mg/kg to be an effective dose of anti-CD19 (data not shown). Percent survival was measured at regular intervals between Day 0 and Day 50 post dosing (hind leg paralysis was used as the endpoint of the experiment). […] The median numbers of days of survival for the mice treated with either vehicle or the isotype control were 23 and 25.5 days, respectively, whereas the median number of days of survival of the mice treated with one dose of the anti-CD19 positive control was 39 days.
The median number of days of survival for the mice treated with the vehicle or the isotype controls were 23-24 days, whereas the median number of days of survival of the mice treated with one dose of the anti-CD19 positive control was 39 days.

[3] = test system: human peripheral blood mononuclear cells (PBMCs); assay: Flow cytometry binding to human PBMC subsets; settings: 33 μg/ml; CD3+, CD20+, CD11b+, CD14+ subsets; vs isotype-matched control
Text: Human PBMCs were isolated by standard methods and different cellular subsets were isolated by FACS. In particular, the following cellular subsets were isolated: (i) CD3^+, (ii) CD20^+; (iii) CD11b^+ and (iv) CD14^+.

KG-1 = KG-1 tumor growth inhibition (monotherapy); assay type: in vivo
Ramos cells [4] = assay: Ramos subcutaneous tumor cell model; assay type: in vivo, mouse; settings: IP day 0 and 7; 15 mg/kg (Fab′ 10 mg/kg, also day 3 and 10)
Text: In this example, the ability of the anti-CXCR4 human antibodies to inhibit proliferation of an established solid tumor in vivo was examined using a Ramos subcutaneous tumor cell model. In this assay, 10×10^6 Ramos cells/mouse were implanted into the flank region of each mouse and allowed to grow to a mean size of 40 mm^3, calculated by length×width×height/2 of the tumors. The mice then received an intraperitoneal (IP) injection of a first dose of antibody (designated as day 0 of treatment) and received a second IP dose of antibody on day 7. Mice treated with a Fab′ fragment antibody also received IP antibody doses on day 3 and day 10. […] Tumor volume and mouse body weight were measured at regular intervals (approximately 2-3 times/week) between day 0 and day 30 post dosing. The results of the experiment are presented in FIGS. 12A, 12B and 12C, which show mean tumor volume (FIG. 12A), median tumor volume (FIG. 12B) and median % body weight change (FIG. 12C). […] All treatments were well-tolerated as indicated by no significant body weight change. The differences in body weights between treatments were most likely due to the weights of the tumors.

Ramos cells [5] = assay: Ramos cell proliferation, Cell-Titer-Glo; assay type: cell-based, human; settings: 40 nM; 72 hours; compared to isotype control
Experimental: Ramos cells were suspended at 1×10^5 cells/mL in growth media, incubated with the relevant antibodies, including isotype controls, and other test agents and cultured for 72 hours at 37° C. Cell-Titer-Glo (Promega) was added to wells, mixed, and incubated at room temperature for 10 minutes. The plate was read on a GloMax Luminometer (Promega).

CLL cells = settings: 2-200 nM; Kashyap et al., 2012; cited from earlier work

## BMS-936564: fully human anti-CXCR4 monoclonal antibody; VH SEQ ID NO: 25, VL SEQ ID NO: 29
[1]
  inhibition of capillary tube formation: most effective in inhibiting capillary tube formation
Parental JJN-3 cells
  tumor growth inhibition: 52%
MM cells
  migration of MM cells toward CXCL12 and primary MM BMSCs: inhibited migration
B16-CXCR4 cells
  Number of Lung Metastases Mean: 157
  Number of Lung Metastases Median: 186
B16-CXCR4 cells; listed as F7 Anti-CXCR4 IgG4, 5 mg/kg
  % Inhibition of Lung Mets (Mean): 56%
B16-CXCR4 cells; listed as F7 mAb, 5 mg/kg
  % Inhibition of Lung Mets (Mean): 56%
Ramos cells [2]; 15 mg/kg
  efficacy in prolonging mouse survival: highly efficacious in prolonging mouse survival
Ramos cells [2]; five doses 15 mg/kg, 120 days after implantation
  percent of mice survived at end of experiment: 100%
[3]
  binding to PBMC subsets: capable of binding effectively to each of the four subsets
KG-1
  % Tumor Growth Inhibition (Monotherapy): 23%
Ramos cells [4]
  tumor cell growth (tumor volume): significantly inhibited tumor cell growth
Ramos cells [5]
  maximum inhibition of Ramos cell proliferation: about 50%
CLL cells
  cell death in CLL cells cultured alone and in the MRD model: induced cell death
